Experimental data published in patent publication US20140148454A1, “SUBSTITUTED AMINO-ACRYLCARBOXAMIDES AS KCNQ2/3 MODULATORS” (GRÜNENTHAL GMBH, priority 2012, published 2014).

How the values were obtained:
[1] = biological target: T1, KCNQ2/3 channels (Homo sapiens, UniProt O43525+O43526); assay: Fluorescence assay using a voltage sensitive dye (fluorimetry); type: cell-based; details: CHO-K1 cells expressing KCNQ2/3 channels
T1 construct: expressed in transfected cells; host or cells: CHO-K1 cells kept under selection antibiotics
Protocol: Method I. Fluorescence Assay Using a Voltage Sensitive Dye (Fluorimetry) […] CHO-K1 cells expressing KCNQ2/3 channels are cultivated adherently at 37° C., 5% CO2 and 95% humidity in cell culture bottles (e.g. 80 cm^2 TC flasks, Nunc) with DMEM-high glucose (Sigma Aldrich, D7777) including 10% FCS (PAN Biotech, e.g. 3302-P270521) or alternatively MEM Alpha Medium (1×, liquid, Invitrogen, #22571), 10% fetal calf serum (FCS) (Invitrogen, #10270-106, heat-inactivated) and the necessary selection antibiotics.
Before being sown out for the measurements, the cells are washed with 1×DPBS buffer Ca^2+/Mg^2+-free (e.g. Invitrogen, #14190-094) and detached from the bottom of the culture vessel by using Accutase (PAA Laboratories, #L11-007) (incubation with Accutase for 15 min at 37° C.). The cell number is determined using a CASY™ cell counter (TCC, Scharfe System). Depending on the optimal density for each individual cell line, 20,000-30,000 cells/well/100 μl are seeded onto 96-well Corning™ CeIIBIND™ assay plates (Flat Clear Bottom Black Polystyrene Microplates, #3340). Freshly seeded cells are then left to settle for one hour at room temperature, followed by incubation for 24 hours at 37° C., 5% CO2 and 95% humidity.
The voltage-sensitive fluorescent dye from the Membrane Potential Assay Kit (Red™ Bulk format part R8123 for FLIPR, MDS Analytical Technologies™) is prepared by dissolving the contents of one vessel Membrane Potential Assay Kit Red Component A in 200 ml of extracellular buffer (ES buffer, 120 mM NaCl, 1 mM KCl, 10 mM HEPES, 2 mM CaCl2, 2 mM MgCl2, 10 mM glucose; pH 7.4). After removal of the nutrient medium, the cells are washed once with 200 μl of ES buffer, then loaded for 45 min at room temperature in 100 μl of dye solution in the dark.
Fluorescence measurements are carried out in a BMG Labtech FLUOstar™, BMG Labtech NOVOstar™ or BMG Labtech POLARstar™ instrument (525 nm excitation, 560 nm emission, Bottom Read mode). After incubation with the dye, 50 μl of the test substances in the desired concentrations, or 50 μl of ES buffer for control purposes, are applied to the wells of the assay plate and incubated for 30 min at room temperature while being shielded from light. The fluorescence intensity of the dye is then measured for 5 min and the fluorescence value F1 of each well is thus determined at a given, constant time. 15 μl of a KCl solution are then added to each well (final concentration of potassium ions 92 mM). The change in fluorescence intensity is subsequently monitored until all the relevant values have been obtained (mainly 5-30 min). At a given time post KCl application, a fluorescence value F2 is determined, in this case at the time of the fluorescence peak.
For calculation, the fluorescence intensity F2 is corrected for the fluorescence intensity F1, and the activity (ΔF/F) of the target compound on the potassium channel is determined as follows:
In order to determine whether a substance has agonistic activity, is determined by adding to the well only the buffer solution instead of the test substance, determining the value F1K of the fluorescence intensity, adding the potassium ions as described above, and measuring a value F2K of the fluorescence intensity. F2K and F1K are then calculated as follows: […]
A substance has an agonistic activity on the potassium channel if it is possible to conclude that a target compound has agonistic activity if Calculations of EC50 and IC50 values are carried out with the aid of ‘Prism v4.0’ software (GraphPad Software™).

[2] = tested on: withdrawal reflex of the rat tail (tail flick) to radiant heat beam; assay: Low-intensity tail flick test (rat); type: in vivo; details: dose 10 mg/kg (dose in brackets), MPE = percentage of maximum possible effect
Protocol: Method II. Low-Intensity Tail Flick Test (Rat)
In the low-intensity tail flick test, the determination of the antinociceptive effect of the compounds according to the invention towards an acute noxious thermal stimulus is carried out by measuring the withdrawal reflex of the rat tail (tail flick) in response to a radiant heat beam (analgesia meter; model 2011 of the company Rhema Labortechnik, Hofheim, Germany) according to the method described by D'Amour and Smith (J. Pharm. Exp. Ther. 72, 74 79 (1941). To this end, the rats were placed in a plexiglas restrainer, and a low-intensity radiant heat beam (48° C.) was focused onto the dorsal surface of the tail root. The stimulus intensity was adjusted to result in a mean pre-drug control withdrawal latency of about 7 s, thus also allowing a supraspinal modulation of the spinally mediated acute nociceptive reflex. […] Before administration of a compound according to the invention, the animals were pre-tested twice in the course of five minutes and the mean of these measurements was calculated as the pre-test mean. The antinociceptive effect was determined at 20, 40 and 60 min after peroral compound administration. The antinociceptive effect was calculated based on the increase in the tail withdrawal latency according to the following formula and is expressed as percentage of the maximum possible effect (MPE [%]): […]

Emax ([1]; relative to retigabine = 100%, read-out: Fluorimetry % efficacy (retigabine = 100%)): 187% | EC50 ([1]; voltage-sensitive dye, read-out: Fluorimetry EC50/IC50): 263 nM
SMILES: CCCc1cc(N2CCOCC2)nc(C)c1C(=O)NCc1ccc(Cl)cc1 [Example 4, N-[(4-Chlorophenyl)-methyl]-2-methyl-6-morpholin-4-yl-4-propyl-pyridine-3-carboxylic acid amide]
Low intensity tail flick, rat, peroral, MPE (dose) [2]: 42 (10) %
